Measurements published in publication PMC6429214, “Design, Synthesis and Biological Evaluation of Isoxazole-Based CK1 Inhibitors Modified with Chiral Pyrrolidine Scaffolds” (Molecules, 2019).

Experiments:
Experiment in all cases: 33PanQinase panel
Assay type in all cases: biochemical
TYK2 = biological target: T1, TYK2 (Homo sapiens, UniProt P29597); conditions: TYK2, 1 µM; read-out: Residual Activity (%)
T1 construct: purchased ProQinase
Procedure: (§1) Figure 5 Dendrogram representation of the selectivity profile of 29d at a concentration of 1 μM in a panel of 320 wild-type kinases (ProQinase, Freiburg, Germany). The residual kinase activity was determined compared to DMSO control. Images were generated using TREEspot Software Tool, DISCOVERX CORPORATION 2010.
(§2) Figure S1. X-ray crystal structure of intermediate compound 25d (ORTEP drawing with ellipsoids at 30% probability). CCDC 1589043 contains the supplementary crystallographic data for this paper. The data can be obtained free of charge from The Cambridge Crystallographic Data Centre via www.ccdc.cam.ac.uk/structures.
(§3) Table S1 Data collection, structure refinement and Ramachrandran plot results of protein crystallization of CK1δ in complex with compound 30a and 30b, respectively.
(§4) Root-mean-square deviations
(§5) Additionally allowed 2.6 2.2
(§6) Table S2. Selectivity profile of compound 29d. The inhibitor has been screened at a concentration of 1 µM over a panel of 320 wild-type protein kinases by ProQinase GmbH (Freiburg, Germany) using an activity-based radiometric 33PanQinase® assay. Results are presented as percentage of residual kinase activity relative to […]
(§7) control. The final DMSO concentration was 1 % in each reaction-mix. Classification of protein kinase families refers to Manning et al. (Manning, G.; Whyte, D. B.; Martinez, R.; Hunter, T.; Sudarsanam, S. The Protein Kinase Complement of the Human Genome. Science 2002, 298, 1912–1934): AGC = containing PKA, PKG, PKC families; […] = containing Cdk, MAPK, GSK3, CLK families; STE = homologs of yeast sterile 7, sterile 11, sterile 20 kinases; TK = tyrosine kinase; TKL = tyrosine kinase-like.
(§8) Kinase name Kinase family Residual Activity (%)

GRK5 = biological target: T2, GRK5 (Homo sapiens, UniProt P34947); conditions: GRK5, 1 µM; read-out: Residual Activity (%)
T2 construct: purchased ProQinase
Procedure: as §1, §2, §3, §4, §5, §6, §7, §8

CDK8/CycC = biological target: T3, CDK8/CycC (Homo sapiens, UniProt P49336); conditions: read-out: Residual Activity (%)
T3 construct: purchased ProQinase
Procedure: as §1, §2, §3, §4, §5, §6, §7, §8

NEK3 = biological target: T4, NEK3 (Homo sapiens, UniProt P51956); conditions: NEK3, 1 µM; read-out: Residual Activity (%)
T4 construct: purchased ProQinase
Procedure: as §1, §2, §3, §4, §5, §6, §7, §8

MYLK3 = biological target: T5, MYLK3 (Homo sapiens, UniProt Q32MK0); conditions: MYLK3, 1 µM; read-out: Residual Activity (%)
T5 construct: purchased ProQinase
Procedure: as §1, §2, §3, §4, §5, §6, §7, §8

HIPK2 = biological target: T6, HIPK2 (Homo sapiens, UniProt Q9H2X6); conditions: HIPK2, 1 µM; read-out: Residual Activity (%)
T6 construct: purchased ProQinase
Procedure: as §1, §2, §3, §4, §5, §6, §7, §8

PYK2 = biological target: T7, PYK2 (Homo sapiens, UniProt Q14289); conditions: PYK2, 1 µM; read-out: Residual Activity (%)
T7 construct: purchased ProQinase
Procedure: as §1, §2, §3, §4, §5, §6, §7, §8

IRAK4 (untagged) = biological target: T8, IRAK4 (untagged) (Homo sapiens, UniProt Q9NWZ3); conditions: read-out: Residual Activity (%)
T8 construct: purchased ProQinase
Procedure: as §1, §2, §3, §4, §5, §6, §7, §8

PIM2 = biological target: T9, PIM2 (Homo sapiens, UniProt Q9P1W9); conditions: PIM2, 1 µM; read-out: Residual Activity (%)
T9 construct: purchased ProQinase
Procedure: as §1, §2, §3, §4, §5, §6, §7, §8

PAK7 = biological target: T10, PAK7 (Homo sapiens, UniProt Q9P286); conditions: PAK7, 1 µM; read-out: Residual Activity (%)
T10 construct: purchased ProQinase
Procedure: as §1, §2, §3, §4, §5, §6, §7, §8

MAP4K5 = biological target: T11, MAP4K5 (Homo sapiens, UniProt Q9Y4K4); conditions: MAP4K5, 1 µM; read-out: Residual Activity (%)
T11 construct: purchased ProQinase
Procedure: as §1, §2, §3, §4, §5, §6, §7, §8

HRI = biological target: T12, HRI (Homo sapiens, UniProt Q9BQI3); conditions: read-out: Residual Activity (%)
T12 construct: purchased ProQinase
Procedure: as §1, §2, §3, §4, §5, §6, §7, §8

GRK7 = biological target: T13, GRK7 (Homo sapiens, UniProt Q8WTQ7); conditions: GRK7, 1 µM; read-out: Residual Activity (%)
T13 construct: purchased ProQinase
Procedure: as §1, §2, §3, §4, §5, §6, §7, §8

MAP3K1 = biological target: T14, MAP3K1 (Homo sapiens, UniProt Q13233); conditions: MAP3K1, 1 µM; read-out: Residual Activity (%)
T14 construct: purchased ProQinase
Procedure: as §1, §2, §3, §4, §5, §6, §7, §8

RPS6KA4 = biological target: T15, RPS6KA4 (Homo sapiens, UniProt O75676); conditions: RPS6KA4, 1 µM; read-out: Residual Activity (%)
T15 construct: purchased ProQinase
Procedure: as §1, §2, §3, §4, §5, §6, §7, §8

SGK3 = biological target: T16, SGK3 (Homo sapiens, UniProt Q96BR1); conditions: SGK3, 1 µM; read-out: Residual Activity (%)
T16 construct: purchased ProQinase
Procedure: as §1, §2, §3, §4, §5, §6, §7, §8

SIK2 = biological target: T17, SIK2 (Homo sapiens, UniProt Q9H0K1); conditions: SIK2, 1 µM; read-out: Residual Activity (%)
T17 construct: purchased ProQinase
Procedure: as §1, §2, §3, §4, §5, §6, §7, §8

PKC-alpha = biological target: T18, PKC-alpha (Homo sapiens, UniProt P17252); conditions: read-out: Residual Activity (%)
T18 construct: purchased ProQinase
Procedure: as §1, §2, §3, §4, §5, §6, §7, §8

EIF2AK3 = biological target: T19, EIF2AK3 (Homo sapiens, UniProt Q9NZJ5); conditions: EIF2AK3, 1 µM; read-out: Residual Activity (%)
T19 construct: purchased ProQinase
Procedure: as §1, §2, §3, §4, §5, §6, §7, §8

MARK1 = biological target: T20, MARK1 (Homo sapiens, UniProt Q9P0L2); conditions: MARK1, 1 µM; read-out: Residual Activity (%)
T20 construct: purchased ProQinase
Procedure: as §1, §2, §3, §4, §5, §6, §7, §8

RIPK5 = biological target: T21, RIPK5 (Homo sapiens, UniProt Q6XUX3); conditions: RIPK5, 1 µM; read-out: Residual Activity (%)
T21 construct: purchased ProQinase
Procedure: as §1, §2, §3, §4, §5, §6, §7, §8

MERTK = biological target: T22, MERTK (Homo sapiens, UniProt Q12866); conditions: read-out: Residual Activity (%)
T22 construct: purchased ProQinase
Procedure: as §1, §2, §3, §4, §5, §6, §7, §8

TLK1 = biological target: T23, TLK1 (Homo sapiens, UniProt Q9UKI8); conditions: TLK1, 1 µM; read-out: Residual Activity (%)
T23 construct: purchased ProQinase
Procedure: as §1, §2, §3, §4, §5, §6, §7, §8

EPHA1 = biological target: T24, EPHA1 (Homo sapiens, UniProt P21709); conditions: EPHA1, 1 µM; read-out: Residual Activity (%)
T24 construct: purchased ProQinase
Procedure: as §1, §2, §3, §4, §5, §6, §7, §8

WNK1 = biological target: T25, WNK1 (Homo sapiens, UniProt Q9H4A3); conditions: WNK1, 1 µM; read-out: Residual Activity (%)
T25 construct: purchased ProQinase
Procedure: as §1, §2, §3, §4, §5, §6, §7, §8

MAP3K10 = biological target: T26, MAP3K10 (Homo sapiens, UniProt Q02779); conditions: MAP3K10, 1 µM; read-out: Residual Activity (%)
T26 construct: purchased ProQinase
Procedure: as §1, §2, §3, §4, §5, §6, §7, §8

T15 sequence (O75676 whole entry): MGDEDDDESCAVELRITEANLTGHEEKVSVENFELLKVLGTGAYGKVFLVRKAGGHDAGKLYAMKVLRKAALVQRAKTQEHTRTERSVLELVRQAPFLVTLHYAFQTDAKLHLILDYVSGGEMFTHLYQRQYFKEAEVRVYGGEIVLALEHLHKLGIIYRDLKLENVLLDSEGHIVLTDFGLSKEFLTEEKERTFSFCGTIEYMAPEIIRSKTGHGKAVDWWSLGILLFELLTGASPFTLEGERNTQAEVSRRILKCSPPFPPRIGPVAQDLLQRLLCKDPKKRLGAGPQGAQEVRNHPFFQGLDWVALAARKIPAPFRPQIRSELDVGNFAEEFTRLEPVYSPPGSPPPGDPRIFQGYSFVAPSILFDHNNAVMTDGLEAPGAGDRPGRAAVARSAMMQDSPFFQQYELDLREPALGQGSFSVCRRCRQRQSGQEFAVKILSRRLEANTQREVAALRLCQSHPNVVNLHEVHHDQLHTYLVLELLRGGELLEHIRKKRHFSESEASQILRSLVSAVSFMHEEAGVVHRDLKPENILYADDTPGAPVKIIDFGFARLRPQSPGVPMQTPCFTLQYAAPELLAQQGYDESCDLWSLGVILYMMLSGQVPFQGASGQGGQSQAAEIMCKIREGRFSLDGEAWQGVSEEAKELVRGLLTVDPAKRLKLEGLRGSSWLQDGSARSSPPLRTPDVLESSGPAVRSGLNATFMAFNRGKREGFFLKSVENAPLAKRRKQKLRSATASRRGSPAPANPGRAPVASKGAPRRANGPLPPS
T1 sequence (P29597 whole entry): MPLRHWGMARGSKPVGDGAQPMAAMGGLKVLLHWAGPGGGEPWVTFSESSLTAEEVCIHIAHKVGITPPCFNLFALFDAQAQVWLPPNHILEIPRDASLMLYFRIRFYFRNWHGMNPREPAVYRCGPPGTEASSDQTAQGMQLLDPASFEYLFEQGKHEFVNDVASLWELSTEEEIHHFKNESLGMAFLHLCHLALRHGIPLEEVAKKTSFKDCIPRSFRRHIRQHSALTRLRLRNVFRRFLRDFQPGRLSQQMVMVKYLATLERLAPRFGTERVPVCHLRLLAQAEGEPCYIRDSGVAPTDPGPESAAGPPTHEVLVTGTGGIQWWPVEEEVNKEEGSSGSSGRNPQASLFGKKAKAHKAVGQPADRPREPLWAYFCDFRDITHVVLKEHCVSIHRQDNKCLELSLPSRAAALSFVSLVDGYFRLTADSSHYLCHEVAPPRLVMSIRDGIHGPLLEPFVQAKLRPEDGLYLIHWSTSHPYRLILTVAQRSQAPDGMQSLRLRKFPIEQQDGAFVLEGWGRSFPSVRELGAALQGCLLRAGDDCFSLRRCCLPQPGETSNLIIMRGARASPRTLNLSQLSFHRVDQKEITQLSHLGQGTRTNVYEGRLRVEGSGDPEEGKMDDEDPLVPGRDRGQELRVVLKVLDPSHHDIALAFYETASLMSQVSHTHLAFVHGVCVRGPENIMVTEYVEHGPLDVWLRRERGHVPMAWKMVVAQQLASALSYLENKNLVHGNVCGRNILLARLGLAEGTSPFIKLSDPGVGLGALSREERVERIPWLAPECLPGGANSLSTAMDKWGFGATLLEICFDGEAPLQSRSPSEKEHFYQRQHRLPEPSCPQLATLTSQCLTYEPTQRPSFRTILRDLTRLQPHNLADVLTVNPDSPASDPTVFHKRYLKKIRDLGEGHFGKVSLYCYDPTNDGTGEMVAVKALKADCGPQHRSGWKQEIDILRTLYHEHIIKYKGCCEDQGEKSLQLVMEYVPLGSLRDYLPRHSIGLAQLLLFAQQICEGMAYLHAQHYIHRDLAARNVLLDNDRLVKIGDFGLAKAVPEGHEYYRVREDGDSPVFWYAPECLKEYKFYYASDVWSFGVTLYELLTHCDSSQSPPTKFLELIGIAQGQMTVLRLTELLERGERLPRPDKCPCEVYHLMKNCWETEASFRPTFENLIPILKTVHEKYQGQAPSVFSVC
T25 sequence (Q9H4A3 whole entry): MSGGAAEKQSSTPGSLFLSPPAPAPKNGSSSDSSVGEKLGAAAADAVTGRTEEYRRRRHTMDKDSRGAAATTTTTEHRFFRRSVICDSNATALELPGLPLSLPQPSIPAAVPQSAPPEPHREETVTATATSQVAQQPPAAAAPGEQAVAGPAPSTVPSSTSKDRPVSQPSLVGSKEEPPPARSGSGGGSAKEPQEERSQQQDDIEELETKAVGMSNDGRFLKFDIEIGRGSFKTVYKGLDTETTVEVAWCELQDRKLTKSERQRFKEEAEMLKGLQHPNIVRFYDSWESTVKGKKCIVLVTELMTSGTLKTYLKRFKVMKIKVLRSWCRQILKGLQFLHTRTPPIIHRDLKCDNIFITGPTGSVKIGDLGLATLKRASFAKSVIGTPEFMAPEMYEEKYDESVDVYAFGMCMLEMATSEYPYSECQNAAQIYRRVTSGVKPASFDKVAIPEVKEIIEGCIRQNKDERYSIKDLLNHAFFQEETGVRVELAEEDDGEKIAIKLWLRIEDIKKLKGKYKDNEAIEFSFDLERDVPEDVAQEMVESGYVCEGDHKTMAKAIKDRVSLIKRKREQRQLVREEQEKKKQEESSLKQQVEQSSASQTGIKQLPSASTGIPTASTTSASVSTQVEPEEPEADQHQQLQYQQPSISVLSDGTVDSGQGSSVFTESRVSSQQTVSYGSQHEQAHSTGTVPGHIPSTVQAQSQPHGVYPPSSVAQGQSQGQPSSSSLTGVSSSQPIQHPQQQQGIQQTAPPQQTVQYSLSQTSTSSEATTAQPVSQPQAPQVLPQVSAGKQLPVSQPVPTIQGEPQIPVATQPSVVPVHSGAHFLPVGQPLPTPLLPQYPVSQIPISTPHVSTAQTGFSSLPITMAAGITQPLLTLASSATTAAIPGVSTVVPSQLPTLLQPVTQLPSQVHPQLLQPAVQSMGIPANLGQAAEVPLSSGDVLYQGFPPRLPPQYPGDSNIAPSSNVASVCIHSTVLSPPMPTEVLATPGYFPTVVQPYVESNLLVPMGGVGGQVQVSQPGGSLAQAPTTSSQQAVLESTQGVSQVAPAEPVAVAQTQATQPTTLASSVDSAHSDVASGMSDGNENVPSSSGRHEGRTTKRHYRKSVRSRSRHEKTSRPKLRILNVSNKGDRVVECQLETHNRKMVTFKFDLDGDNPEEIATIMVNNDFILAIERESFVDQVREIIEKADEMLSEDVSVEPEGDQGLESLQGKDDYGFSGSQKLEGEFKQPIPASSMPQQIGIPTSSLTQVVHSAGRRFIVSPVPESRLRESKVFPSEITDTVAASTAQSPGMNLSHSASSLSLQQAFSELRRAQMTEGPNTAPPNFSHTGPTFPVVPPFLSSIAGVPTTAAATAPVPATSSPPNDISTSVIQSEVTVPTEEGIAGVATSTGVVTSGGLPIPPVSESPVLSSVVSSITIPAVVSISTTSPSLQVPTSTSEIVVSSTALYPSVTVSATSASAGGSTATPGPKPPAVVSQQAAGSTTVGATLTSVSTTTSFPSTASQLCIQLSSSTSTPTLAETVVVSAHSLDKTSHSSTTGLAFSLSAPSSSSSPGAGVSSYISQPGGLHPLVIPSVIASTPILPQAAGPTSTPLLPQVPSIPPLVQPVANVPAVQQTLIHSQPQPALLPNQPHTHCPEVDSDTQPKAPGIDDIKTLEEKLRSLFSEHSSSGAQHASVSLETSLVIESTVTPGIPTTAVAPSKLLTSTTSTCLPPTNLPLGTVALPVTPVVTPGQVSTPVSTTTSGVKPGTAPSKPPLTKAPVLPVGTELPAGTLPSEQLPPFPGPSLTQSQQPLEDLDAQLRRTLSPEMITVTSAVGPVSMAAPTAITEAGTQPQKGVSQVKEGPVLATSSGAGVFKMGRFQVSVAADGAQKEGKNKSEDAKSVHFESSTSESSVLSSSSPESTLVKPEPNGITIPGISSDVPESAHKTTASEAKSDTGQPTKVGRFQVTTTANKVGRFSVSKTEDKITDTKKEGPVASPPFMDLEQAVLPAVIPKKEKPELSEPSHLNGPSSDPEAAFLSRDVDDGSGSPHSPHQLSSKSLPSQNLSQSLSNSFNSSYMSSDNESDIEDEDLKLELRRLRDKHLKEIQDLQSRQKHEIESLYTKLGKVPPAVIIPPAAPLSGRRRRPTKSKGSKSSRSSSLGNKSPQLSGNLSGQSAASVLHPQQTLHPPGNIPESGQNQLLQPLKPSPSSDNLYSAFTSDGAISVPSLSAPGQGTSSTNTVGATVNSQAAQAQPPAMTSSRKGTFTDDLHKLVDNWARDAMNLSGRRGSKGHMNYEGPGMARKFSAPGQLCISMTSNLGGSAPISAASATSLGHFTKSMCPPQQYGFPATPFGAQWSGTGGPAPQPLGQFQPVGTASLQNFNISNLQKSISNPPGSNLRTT
T10 sequence (Q9P286 whole entry): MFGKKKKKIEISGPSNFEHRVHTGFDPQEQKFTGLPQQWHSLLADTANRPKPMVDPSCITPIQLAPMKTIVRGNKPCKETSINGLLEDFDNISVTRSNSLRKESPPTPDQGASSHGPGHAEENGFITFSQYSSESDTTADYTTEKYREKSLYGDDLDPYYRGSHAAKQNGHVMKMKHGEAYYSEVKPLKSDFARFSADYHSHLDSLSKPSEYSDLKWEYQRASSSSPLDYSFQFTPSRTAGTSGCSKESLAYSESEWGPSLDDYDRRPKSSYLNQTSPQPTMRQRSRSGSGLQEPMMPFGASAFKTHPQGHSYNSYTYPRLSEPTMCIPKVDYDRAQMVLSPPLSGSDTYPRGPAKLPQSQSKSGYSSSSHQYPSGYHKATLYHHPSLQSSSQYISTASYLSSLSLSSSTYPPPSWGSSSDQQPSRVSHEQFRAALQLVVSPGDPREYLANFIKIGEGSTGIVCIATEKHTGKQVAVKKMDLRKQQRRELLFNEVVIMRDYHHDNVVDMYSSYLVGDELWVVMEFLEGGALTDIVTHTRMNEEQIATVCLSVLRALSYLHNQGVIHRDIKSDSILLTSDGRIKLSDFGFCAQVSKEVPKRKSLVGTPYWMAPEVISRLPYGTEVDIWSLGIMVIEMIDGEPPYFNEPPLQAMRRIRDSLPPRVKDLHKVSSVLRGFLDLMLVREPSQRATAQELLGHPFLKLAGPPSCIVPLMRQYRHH

SMILES: COc1ccc(-c2cc(C(=O)Nc3cc(-c4c(-c5ccc(F)cc5)noc4C(C)C)ccn3)n(CC3NCC(O)C3O)c2)cc1 (centres unmarked) [29d]
- remaining activity at 1 µM (TYK2): 85%
- remaining activity at 1 µM (GRK5): 97%
- remaining activity at 1 µM (CDK8/CycC): 106%
- remaining activity at 1 µM (NEK3): 96%
- remaining activity at 1 µM (MYLK3): 87%
- remaining activity at 1 µM (HIPK2): 83%
- remaining activity at 1 µM (PYK2): 116%
- remaining activity at 1 µM (IRAK4 (untagged)): 89%
- remaining activity at 1 µM (PIM2): 84%
- remaining activity at 1 µM (PAK7): 97%
- remaining activity at 1 µM (MAP4K5): 96%
- remaining activity at 1 µM (HRI): 93%
- remaining activity at 1 µM (GRK7): 107%
- remaining activity at 1 µM (MAP3K1): 94%
- remaining activity at 1 µM (RPS6KA4): 105%
- remaining activity at 1 µM (SGK3): 97%
- remaining activity at 1 µM (SIK2): 98%
- remaining activity at 1 µM (PKC-alpha): 107%
- remaining activity at 1 µM (EIF2AK3): 104%
- remaining activity at 1 µM (MARK1): 80%
- remaining activity at 1 µM (RIPK5): 99%
- remaining activity at 1 µM (MERTK): 76%
- remaining activity at 1 µM (TLK1): 77%
- remaining activity at 1 µM (EPHA1): 120%
- remaining activity at 1 µM (WNK1): 90%
- remaining activity at 1 µM (MAP3K10): 120%
